Measurements: US8962842B2, “2-pyridone antimicrobial compositions” (priority 2010, dated 2015)
Like-named read-outs stand apart in the source and are kept apart here.

Experiments:
[1] = system: Escherichia coli (6 strains); assay: MIC range, broader panel of Quotient Bioresearch strains (Table 4); type: cell-based
[2] = system: Klebsiella pneumonia (4 strains); assay: as above; type: cell-based; settings: Klebsiella pneumoniae
[3] = system: Pseudomonas aeruginosa (12 strains); assay: as above; type: cell-based
[4] = system: Haemophilus influenza (5 strains); assay: as above; type: cell-based, Haemophilus influenzae
[5] = system: Acinetobacter baumannii (12 strains); assay: as above; type: cell-based
[6] = system: Acinetobacter baumannii, quinolone-resistant strains (Quotient Bioresearch catalogue); assay: MIC against pathogens resistant against quinolones (Table 5); type: cell-based; settings: Acinetobacter baumannii, GN54
[7] = target: bacterial gyrase (Escherichia coli, UniProt P0AES4+P0AES6); assay: Inhibition of topoisomerases activity in vitro, Topogen protocol TG1003 (Table 7); type: biochemical
Chain of bacterial gyrase (P0AES4 whole entry, one chain of several): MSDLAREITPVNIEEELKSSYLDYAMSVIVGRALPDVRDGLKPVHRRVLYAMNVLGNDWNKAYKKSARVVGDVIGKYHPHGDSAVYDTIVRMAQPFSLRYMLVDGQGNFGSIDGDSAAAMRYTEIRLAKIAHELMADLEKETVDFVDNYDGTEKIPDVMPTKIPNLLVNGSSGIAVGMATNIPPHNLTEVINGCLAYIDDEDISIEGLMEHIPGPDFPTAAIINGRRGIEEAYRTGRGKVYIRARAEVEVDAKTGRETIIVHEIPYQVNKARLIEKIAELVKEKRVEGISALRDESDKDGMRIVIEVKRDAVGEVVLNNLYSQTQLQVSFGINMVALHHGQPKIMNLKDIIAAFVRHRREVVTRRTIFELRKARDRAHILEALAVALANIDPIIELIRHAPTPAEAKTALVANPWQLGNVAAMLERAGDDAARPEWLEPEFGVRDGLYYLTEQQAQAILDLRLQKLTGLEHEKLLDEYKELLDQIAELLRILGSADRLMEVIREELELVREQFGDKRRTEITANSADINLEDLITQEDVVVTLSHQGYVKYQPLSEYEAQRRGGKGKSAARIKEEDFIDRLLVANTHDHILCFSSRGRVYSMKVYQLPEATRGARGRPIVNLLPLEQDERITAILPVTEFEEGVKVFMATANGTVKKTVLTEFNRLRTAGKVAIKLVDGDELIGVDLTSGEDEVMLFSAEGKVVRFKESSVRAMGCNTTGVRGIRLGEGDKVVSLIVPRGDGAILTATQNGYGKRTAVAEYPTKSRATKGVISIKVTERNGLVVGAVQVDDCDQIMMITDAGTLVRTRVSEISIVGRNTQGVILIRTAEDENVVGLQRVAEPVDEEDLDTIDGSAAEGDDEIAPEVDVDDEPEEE

[8] = target: bacterial topoisomerase IV (Escherichia coli, UniProt P0AFI2+P20083); assay: Inhibition of topoisomerases activity in vitro, Topogen protocol TG1007 (Table 7); type: biochemical
Chain of bacterial topoisomerase IV (P20083 whole entry): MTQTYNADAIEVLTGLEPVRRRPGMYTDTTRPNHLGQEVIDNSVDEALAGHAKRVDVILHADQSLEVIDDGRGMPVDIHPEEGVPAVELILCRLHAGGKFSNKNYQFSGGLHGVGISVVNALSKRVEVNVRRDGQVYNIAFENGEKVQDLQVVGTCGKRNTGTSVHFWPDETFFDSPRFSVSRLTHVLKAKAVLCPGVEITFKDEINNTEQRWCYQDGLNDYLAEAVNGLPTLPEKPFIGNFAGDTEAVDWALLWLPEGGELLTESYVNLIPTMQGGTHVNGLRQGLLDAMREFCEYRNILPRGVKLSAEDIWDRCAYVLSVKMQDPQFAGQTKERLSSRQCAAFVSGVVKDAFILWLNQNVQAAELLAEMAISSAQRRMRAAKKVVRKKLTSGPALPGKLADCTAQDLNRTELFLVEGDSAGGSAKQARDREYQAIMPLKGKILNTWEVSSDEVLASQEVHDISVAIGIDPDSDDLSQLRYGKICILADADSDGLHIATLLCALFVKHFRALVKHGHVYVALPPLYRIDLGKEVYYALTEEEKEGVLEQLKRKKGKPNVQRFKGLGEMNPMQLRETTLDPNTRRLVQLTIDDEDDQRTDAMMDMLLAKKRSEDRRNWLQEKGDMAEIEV
Chain of bacterial topoisomerase IV (P0AFI2 whole entry): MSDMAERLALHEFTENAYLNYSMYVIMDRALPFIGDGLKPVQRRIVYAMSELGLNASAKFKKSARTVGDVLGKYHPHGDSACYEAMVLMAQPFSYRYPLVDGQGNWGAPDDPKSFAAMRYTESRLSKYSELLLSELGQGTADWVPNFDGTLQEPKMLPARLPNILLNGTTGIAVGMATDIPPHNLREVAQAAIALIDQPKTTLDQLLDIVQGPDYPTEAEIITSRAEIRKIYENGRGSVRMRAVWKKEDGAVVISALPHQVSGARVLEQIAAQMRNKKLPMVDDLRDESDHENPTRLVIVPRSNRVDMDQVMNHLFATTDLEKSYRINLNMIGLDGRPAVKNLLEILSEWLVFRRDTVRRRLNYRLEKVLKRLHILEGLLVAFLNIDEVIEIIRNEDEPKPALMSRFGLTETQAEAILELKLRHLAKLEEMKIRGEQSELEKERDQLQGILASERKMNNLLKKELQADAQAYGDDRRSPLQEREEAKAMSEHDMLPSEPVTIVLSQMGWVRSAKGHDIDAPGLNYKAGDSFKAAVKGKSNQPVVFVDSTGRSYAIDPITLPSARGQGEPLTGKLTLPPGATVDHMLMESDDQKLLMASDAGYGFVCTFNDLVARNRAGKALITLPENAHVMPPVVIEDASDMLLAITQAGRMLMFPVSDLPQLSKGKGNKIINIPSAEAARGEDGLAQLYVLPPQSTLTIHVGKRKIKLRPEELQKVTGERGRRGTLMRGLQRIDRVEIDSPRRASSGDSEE

[9] = target: T1, human topoisomerase I (Homo sapiens, UniProt P11387); assay: Inhibition of topoisomerases activity in vitro, Topogen protocol TG1015 (Table 7); type: biochemical; settings: read-out: IC50 hTopo I Assay
T1 construct: purchased Topogen Inc., Port Orange, USA TG1015
T1 sequence (P11387 1-765): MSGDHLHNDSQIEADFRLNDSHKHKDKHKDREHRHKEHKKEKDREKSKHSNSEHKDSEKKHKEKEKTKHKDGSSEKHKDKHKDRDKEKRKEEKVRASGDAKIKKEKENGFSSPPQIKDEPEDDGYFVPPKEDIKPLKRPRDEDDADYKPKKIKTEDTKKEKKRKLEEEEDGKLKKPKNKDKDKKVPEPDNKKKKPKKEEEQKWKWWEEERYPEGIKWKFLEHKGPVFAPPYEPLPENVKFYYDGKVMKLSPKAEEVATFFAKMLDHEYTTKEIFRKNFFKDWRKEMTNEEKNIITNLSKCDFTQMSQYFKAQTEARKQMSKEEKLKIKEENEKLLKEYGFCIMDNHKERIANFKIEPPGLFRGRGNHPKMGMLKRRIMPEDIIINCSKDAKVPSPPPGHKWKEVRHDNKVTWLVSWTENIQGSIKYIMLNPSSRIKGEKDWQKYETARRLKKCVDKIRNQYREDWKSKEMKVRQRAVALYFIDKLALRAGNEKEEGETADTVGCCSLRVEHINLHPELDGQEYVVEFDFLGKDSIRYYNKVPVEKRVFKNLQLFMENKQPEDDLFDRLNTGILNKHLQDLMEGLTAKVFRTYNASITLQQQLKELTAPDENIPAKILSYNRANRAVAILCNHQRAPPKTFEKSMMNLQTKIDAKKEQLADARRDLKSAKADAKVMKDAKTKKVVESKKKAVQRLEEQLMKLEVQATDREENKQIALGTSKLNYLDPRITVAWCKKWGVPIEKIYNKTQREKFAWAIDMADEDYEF

[10] = Metabolic stability in liver microsomes +/- S9 fraction (Table 8); type: in vitro ADME; settings: 1 μM
Experimental: Metabolic stability of a select number of examples was tested in liver microsomes+/−addition of S9 fraction as described by Kuhnz, W. and Gieschen, H. (1998), Drug Metab. Dispos., 1120-1127. Test concentration was 1 μM and HPLC/MS-MS was used for detection.

[11] = system: Bacterial strains injected into thigh muscles; type: in vivo, mice; settings: 30 mg/kg TDS p.o.
[12] = physchem; type: physicochemical; settings: thermodynamic from solid
Experimental: The solutions were incubated at room temperature for 24 hours before quantification by HPLC detection. Aqueous solubility was evaluated in simulated gastric fluid (SGF), simulated intestinal fluid (SIF) and phosphate buffer saline (PBS) pH 7.4. Aqueous solubility is expressed in Table 11 as mean solubility in μM.

[13] = system: Staphylococcus aureus, quinolone-resistant strains (Quotient Bioresearch catalogue); assay: MIC against pathogens resistant against quinolones (Table 5); settings: strain GP82, Staphylococcus aureus levofloxacin-resistant clinical isolate, amino acid changes GrlA, GrlB & GyrA
[14] = system: Staphylococcus aureus (16 strains); assay: MIC range, broader panel of Quotient Bioresearch strains (Table 3)
[15] = system: Enterococcus faecalis (5 strains); assay: as above
[16] = system: Enterococcus faecium (3 strains); assay: as above
[17] = system: Streptococcus pneumonia (5 strains); assay: as above; settings: Streptococcus pneumoniae
[18] = system: Group C Streptococcus (4 strains); assay: as above

**Q.** Which MIC ([1]; read-out: MIC Range High, Escherichia coli (6 strains)) does the source give for `Cc1c(-c2ccc3[nH]ncc3c2)ccn2c(=O)c(C(=O)[O-])cc(C3CC3)c12.[K+]` [Example 23 K salt, potassium 1-cyclopropyl-8-(1H-indazol-5-yl)-9-methyl-4-oxo-4H-quinolizine-3-carboxylate] here?
**A.** Its MIC is 16 µg/mL.

**Q.** And the MIC ([1]; read-out: MIC Range Low, Escherichia coli (6 strains))?
**A.** Its MIC is no more than 0.015 µg/mL.

**Q.** And the MIC50 ([1]; read-out: MIC Range Median, Escherichia coli (6 strains))?
**A.** Its MIC50 is 4 µg/mL.

**Q.** What about the MIC ([2]; read-out: MIC Range High, Klebsiella pneumonia (4 strains)) of the same compound?
**A.** The MIC was 16 µg/mL.

**Q.** What about the MIC ([2]; read-out: MIC Range Low, Klebsiella pneumonia (4 strains)) of the same compound?
**A.** The MIC was 0.06 µg/mL.

**Q.** What about the MIC50 ([2]; read-out: MIC Range Median, Klebsiella pneumonia (4 strains)) of the same compound?
**A.** Its MIC50 is 5 µg/mL.

**Q.** And the MIC ([3]; read-out: MIC Range High, Pseudomonas aeruginosa (12 strains))?
**A.** The MIC was 16 µg/mL.

**Q.** What about the MIC ([3]; read-out: MIC Range Low, Pseudomonas aeruginosa (12 strains)) of the same compound?
**A.** Its MIC is 0.25 µg/mL.

**Q.** What about the MIC50 ([3]; read-out: MIC Range Median, Pseudomonas aeruginosa (12 strains)) of the same compound?
**A.** Its MIC50 is 2 µg/mL.

**Q.** And the MIC50 ([4]; 16 h, Median of the strain panel)?
**A.** The MIC50 was no more than 0.015 µg/mL.

**Q.** What about the MIC ([4]; High of the strain panel, read-out: MIC Range High, Haemophilus influenza (5 strains)) of the same compound?
**A.** The MIC was no more than 0.015 µg/mL.

**Q.** What about the MIC ([4]; Low of the strain panel, read-out: MIC Range Low, Haemophilus influenza (5 strains)) of the same compound?
**A.** The MIC was no more than 0.015 µg/mL.

**Q.** What about the MIC ([5]; read-out: MIC Range High, Acinetobacter baumannii (12 strains)) of the same compound?
**A.** Its MIC is 8 µg/mL.

**Q.** And the MIC ([5]; read-out: MIC Range Low, Acinetobacter baumannii (12 strains))?
**A.** The MIC was 0.03 µg/mL.

**Q.** What about the MIC50 ([5]; read-out: MIC Range Median, Acinetobacter baumannii (12 strains)) of the same compound?
**A.** Its MIC50 is 3 µg/mL.

**Q.** What about the MIC [6] of the same compound?
**A.** Its MIC is 1 µg/mL.

**Q.** And the IC50 [7]?
**A.** Its IC50 is no more than 1.39 µM.

**Q.** What about the IC50 [8] of the same compound?
**A.** The IC50 was 4.34 µM.

**Q.** And the IC50 [9]?
**A.** Its IC50 is greater than 140 µM.

**Q.** What about the “Mean Parent Remaining” value ([10]; Liver microsomes + S9, human) of the same compound?
**A.** Its value is 80%.

**Q.** And the “Mean Parent Remaining” value ([10]; Liver microsomes + S9, mouse)?
**A.** Its value is 2%.

**Q.** And the “Mean Parent Remaining” value ([10]; Liver microsomes, human)?
**A.** The value was 67%.

**Q.** What about the “Mean Parent Remaining” value ([10]; Liver microsomes, mouse) of the same compound?
**A.** Its value is 2%.

**Q.** And the “Log reduction (LgR) from vehicle control (CFU/g)” value ([11]; E. coli ATCC 25922, mouse thigh)?
**A.** Its value is 2.82.

**Q.** What about the “Log reduction (LgR) from vehicle control (CFU/g)” value ([11]; MRSA ATCC 43300, mouse thigh) of the same compound?
**A.** The value was 4.66.

**Q.** And the solubility at 24 h ([12]; fassgf or other biorelevant)?
**A.** Its solubility at 24 h is 105 µM.

**Q.** What about the solubility at 24 h ([12]; pH 7.4, aqueous buffer) of the same compound?
**A.** The solubility at 24 h was 37 µM.

**Q.** What about the solubility at 24 h ([12]; simulated gastric fluid) of the same compound?
**A.** The solubility at 24 h was 8 µM.

**Q.** And the MIC [13]?
**A.** The MIC was no more than 0.015 µg/mL.

**Q.** What about the MIC ([14]; read-out: MIC Range High, Staphylococcus aureus (16 strains)) of the same compound?
**A.** Its MIC is 0.12 µg/mL.

**Q.** And the MIC50 ([14]; read-out: MIC Range Median, Staphylococcus aureus (16 strains))?
**A.** Its MIC50 is 0.03 µg/mL.

**Q.** What about the MIC ([15]; read-out: MIC Range Low, Enterococcus faecalis (5 strains)) of the same compound?
**A.** Its MIC is no more than 0.015 µg/mL.

**Q.** And the MIC50 ([15]; read-out: MIC Range Median, Enterococcus faecalis (5 strains))?
**A.** Its MIC50 is no more than 0.015 µg/mL.

**Q.** And the MIC ([16]; read-out: MIC Range Low, Enterococcus faecium (3 strains))?
**A.** Its MIC is 0.06 µg/mL.

**Q.** And the MIC50 ([16]; read-out: MIC Range Median, Enterococcus faecium (3 strains))?
**A.** The MIC50 was 0.25 µg/mL.

**Q.** What about the MIC ([17]; read-out: MIC Range Low, Streptococcus pneumonia (5 strains)) of the same compound?
**A.** Its MIC is no more than 0.015 µg/mL.

**Q.** And the MIC50 ([17]; read-out: MIC Range Median, Streptococcus pneumonia (5 strains))?
**A.** Its MIC50 is 0.03 µg/mL.

**Q.** What about the MIC ([18]; read-out: MIC Range High, Group C Streptococcus (4 strains)) of the same compound?
**A.** Its MIC is 0.03 µg/mL.

**Q.** And the MIC ([18]; read-out: MIC Range Low, Group C Streptococcus (4 strains))?
**A.** Its MIC is no more than 0.015 µg/mL.

**Q.** What about the MIC50 ([18]; read-out: MIC Range Median, Group C Streptococcus (4 strains)) of the same compound?
**A.** The MIC50 was no more than 0.015 µg/mL.
